Measurements reported in patent publication US9113629B2, “4-amino-6-(4-substituted-phenyl)-picolinates and 6-amino-2-(4-substituted-phenyl)-pyrimidine-4-carboxylates and their use as herbicides” (DOW AGROSCIENCES LLC, priority 2013, dated 2015).
Where two headings read alike, the source gives them in different places.

Key:
[1] = tested on: Key Grass and Sedge Weeds as well as Grass Crops; test: Post-emergent Test II herbicidal activity (Table 6); assay type: in vivo; details: post-emergence, 336 h; for pest or weed control at 70 g/ha: 70 g ai/ha; for pest or weed control at 140 g/ha: 140 g ai/ha
Method in brief: (§1)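 Greenhouse-grown plants at first or second true leaf stage were sprayed post-emergence with compound in acetone/DMSO-based aqueous spray containing crop oil concentrate and surfactant, at 187 L/ha, highest rate plus ½× to 1/16× dilutions. After 14 d, injury was scored visually versus untreated plants, 0 (none) to 100% (complete kill).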

[2] = tested on: Key Broadleaf Weed and Crop Species; test: Post-emergent Test II herbicidal activity (Table 5); assay type: in vivo; details: post-emergence, 336 h, 14 days after application; for pest or weed control at 70 g/ha: application rate 70 g ai/ha; for pest or weed control at 140 g/ha: application rate 140 g ai/ha
Method in brief: as §1

[3] = CYPES: yellow nutsedge (Cyperus esculentus), read-out: Visual Growth Reduction (%) 14 Days After Application, CYPES
[4] = DIGSA: crabgrass (Digitaria sanguinalis), read-out: Visual Growth Reduction (%) 14 Days After Application, DIGSA
[5] = ECHCG: barnyardgrass (Echinochloa crus-galli), read-out: Visual Growth Reduction (%) 14 Days After Application, ECHCG
[6] = ORYSA: rice (Oryza sativa), crop, read-out: Visual Growth Reduction (%) 14 Days After Application, ORYSA
[7] = SETFA: giant foxtail (Setaria faberi), read-out: Visual Growth Reduction (%) 14 Days After Application, SETFA
[8] = SORVU: grain sorghum (Sorghum vulgare), read-out: Visual Growth Reduction (%) 14 Days After Application, SORVU
[9] = TRZSS (wheat, Triticum aestivum), crop, read-out: Visual Growth Reduction (%) 14 Days After Application, TRZSS
[10] = ZEAMX: maize, corn (Zea mays), crop, read-out: Visual Growth Reduction (%) 14 Days After Application, ZEAMX
[11] = ABUTH: velvetleaf (Abutilon theophrasti), read-out: Visual Growth Reduction (%) 14 Days After Application, ABUTH
[12] = AMARE: redroot pigweed (Amaranthus retroflexus), read-out: Visual Growth Reduction (%) 14 Days After Application, AMARE
[13] = BRSNN: oilseed-rape, canola (Brassica napus), read-out: Visual Growth Reduction (%) 14 Days After Application, BRSNN
[14] = CHEAL: lambsquarters (Chenopodium album), read-out: Visual Growth Reduction (%) 14 Days After Application, CHEAL
[15] = EPHHL: wild poinsettia (Euphorbia heterophylla), read-out: Visual Growth Reduction (%) 14 Days After Application, EPHHL
[16] = HELAN: sunflower (Helianthus annuus), read-out: Visual Growth Reduction (%) 14 Days After Application, HELAN
[17] = VIOTR: wild pansy (Viola tricolor), read-out: Visual Growth Reduction (%) 14 Days After Application, VIOTR

For `Nc1c(F)c(-c2ccc(Br)c(F)c2F)nc(C(=O)O)c1Cl` [Compound 147], the pest or weed control at 70 g/ha [1, 3] was 95 to 100%, the pest or weed control at 140 g/ha [1, 3] was 95 to 100% and the pest or weed control at 70 g/ha [1, 4] was 85 to 94%. The pest or weed control at 140 g/ha [1, 4] was 95 to 100%, the pest or weed control at 70 g/ha [1, 5] was 95 to 100% and the pest or weed control at 140 g/ha [1, 5] was 95 to 100%. For the same molecule, the pest or weed control at 70 g/ha [1, 6] was 60 to 74%, the pest or weed control at 140 g/ha [1, 6] was 75 to 84% and the pest or weed control at 70 g/ha [1, 7] was 0 to 29%. It also gave a pest or weed control at 140 g/ha [1, 7] of 95 to 100%, a pest or weed control at 70 g/ha [1, 8] of 95 to 100% and a pest or weed control at 140 g/ha [1, 8] of 95 to 100%. It also gave a pest or weed control at 70 g/ha [1, 9] of 60 to 74%, a pest or weed control at 140 g/ha [1, 9] of 60 to 74% and a pest or weed control at 70 g/ha [1, 10] of 95 to 100%. For the same molecule, the pest or weed control at 140 g/ha [1, 10] was 95 to 100%, the pest or weed control at 70 g/ha [2, 11] was 95 to 100% and the pest or weed control at 140 g/ha [2, 11] was 0 to 29%. It also gave a pest or weed control at 70 g/ha [2, 12] of 95 to 100%, a pest or weed control at 140 g/ha [2, 12] of 95 to 100% and a pest or weed control at 70 g/ha [2, 13] of 95 to 100%. For the same molecule, the pest or weed control at 140 g/ha [2, 13] was 95 to 100%, the pest or weed control at 70 g/ha [2, 14] was 95 to 100% and the pest or weed control at 140 g/ha [2, 14] was 95 to 100%. For the same molecule, the pest or weed control at 70 g/ha [2, 15] was 95 to 100%, the pest or weed control at 140 g/ha [2, 15] was 95 to 100% and the pest or weed control at 70 g/ha [2, 16] was 95 to 100%. The pest or weed control at 140 g/ha [2, 16] was 95 to 100%, the pest or weed control at 70 g/ha [2, 17] was 95 to 100% and the pest or weed control at 140 g/ha [2, 17] was 95 to 100%.
